Measured values taken from PMC9202104 (BMC Biology, 2022).
Like-named read-outs stand apart in the source and are kept apart here.

Legend:
[1] = test system: ZIKV infection; conditions: read-out: IC50 against ZIKV infection (reported); cited from earlier work
[2] = test system: ZIKV human strain PAN2016 (2016/Panama); assay: Plaque assay, inhibition of ZIKV infection (strain PAN2016); conditions: for SI (CC50/IC50): CC50 Vero E6 / IC50 ZIKV PAN2016
Description: (§1) After removal of the unbound compounds by centrifugation (after addition of 3% PEG-6000), ZIKV was incubated with Vero E6 cells in 24-well plates at 37°C for 1 h. The cells were then washed with PBS, overlaid with DMEM containing 1% carboxymethyl cellulose and 2% FBS, and cultured at 37°C for 4–5 days, followed by being stained with 0.5% crystal violet. […] Plaques in each well were calculated, and IC50 of compounds for each compound was calculated using the CalcuSyn computer program.

[3] = Cytotoxicity, Cell Counting Kit-8, Vero E6 cells; type: cell-based; conditions: African green monkey
Description: (§2) Briefly, compounds at 2-fold serial dilutions were added to the respective cells (2.0×10^4/well) pre-seeded in 96-well plates. The cells were cultured at 37°C in the presence of 5% CO2 for 3 days, […] incubated with CCK8 solution, followed by measurement of absorbance at 450 nm (A450 value), using a microplate reader (Infinite F200PRO, Tecan, Morrisville, NC, USA). CC50 of compounds was calculated using the CalcuSyn program.

[4] = test system: ZIKV mosquito strain MEX 2-81; assay: Plaque assay, inhibition of ZIKV infection (strain MEX 2-81); type: cell-based; conditions: Zika virus
Description: as §1

[5] = test system: ZIKV rhesus macaque strain MR 766; assay: Plaque assay, inhibition of ZIKV infection (strain MR 766); type: cell-based; conditions: Zika virus
Description: as §1

[6] = test system: ZIKV human strain R116265; assay: Plaque assay, inhibition of ZIKV infection (strain R116265); type: cell-based; conditions: Zika virus, Vero C1008, Vero E6 cells
Description: as §1

[7] = test system: ZIKV human strain PAN2015; assay: Plaque assay, inhibition of ZIKV infection (strain PAN2015); type: cell-based; conditions: Zika virus, Vero C1008, Vero E6 cells
Description: as §1

[8] = test system: ZIKV human strain FLR; assay: Plaque assay, inhibition of ZIKV infection (strain FLR); type: cell-based; conditions: Zika virus
Description: as §1

[9] = test system: ZIKV human strain R103451; assay: Plaque assay, inhibition of ZIKV infection (strain R103451); type: cell-based; conditions: Zika virus
Description: as §1

[10] = test system: ZIKV human strain PRVABC59; assay: Plaque assay, inhibition of ZIKV infection (strain PRVABC59); type: cell-based; conditions: Zika virus
Description: as §1

[11] = test system: ZIKV human strain PLCal_ZV; assay: Plaque assay, inhibition of ZIKV infection (strain PLCal_ZV); type: cell-based; conditions: Zika virus
Description: as §1

[12] = test system: ZIKV human strain IbH 30656; assay: Plaque assay, inhibition of ZIKV infection (strain IbH 30656); type: cell-based; conditions: Zika virus
Description: as §1

[13] = test system: 8 human ZIKV strains (PAN2016, R116265, PAN2015, FLR, R103451, PRVABC59, PLCal_ZV, IbH 30656); assay: microbe, parasite or virus in culture; type: cell-based; conditions: Zika virus, read-out: Average IC50 (human strains)
Description: as §1

[14] = test system: Vero E6 cells; assay: Cytotoxicity, Cell Counting Kit-8, Vero E6 cells; type: cell-based; conditions: African green monkey, 3 days
Description: as §2

[15] = in vitro; type: cell-based; conditions: rhesus monkey
Description: as §2

[16] = test system: DENV-1-V1792; assay: Plaque assay, inhibition of DENV-1 infection in LLC-MK2 cells; type: cell-based; conditions: Dengue virus, DENV1
[17] = test system: DENV-2-V594; assay: Plaque assay, inhibition of DENV-2 infection in LLC-MK2 cells; type: cell-based; conditions: Dengue virus, DENV2
[18] = test system: DENV-3-V1043; assay: Plaque assay, inhibition of DENV-3 infection in LLC-MK2 cells; type: cell-based; conditions: Dengue virus, DENV3
[19] = test system: DENV-4-PR-06-65-740; assay: Plaque assay, inhibition of DENV-4 infection in LLC-MK2 cells; type: cell-based; conditions: Dengue virus, DENV4
[20] = test system: ZIKV human strain R103451; assay: Lethal ZIKV challenge in adult Ifnar1−/− mice, survival and weight; type: in vivo; conditions: ZIKV R103451 200 PFU
Description: (§3) Briefly, 7–8-week-old male mice were used, and two separate experiments were performed. […] These mice were i.p. infected with ZIKV (human strain R103451, 200 PFU/mouse) and observed daily for weight changes and survival until 21 dpi. […] Five days later, these mice were sacrificed, and their tissues, including the heart, testis, eye, kidney, and brain, were collected for detection of viral titers by plaque assay, or apoptosis by immunofluorescence staining. Mice losing 20% of initial weight with severe symptoms, including hind limb weakness and paralysis, or 25% of initial weight, were humanely euthanized with an overdose isoflurane in a Bell Jar, followed by cervical dislocation.

[21] = test system: ZIKV human strain PAN2016; assay: ZIKV challenge in adult Ifnar1−/− mice, tissue viral titers and immunofluorescence; type: in vivo; conditions: 20 mg/kg i.p.; ZIKV PAN2016 200 PFU; 5 dpi; compared to DMSO-treated mice
Description: as §3
Plaque assay was used to detect viral titers in ZIKV-infected tissues. Briefly, tissues were homogenized with cold culture medium (DMEM + 2% FBS) and then centrifuged (2000 g at 4°C for 10 min). Supernatants were serially diluted to infect Vero E6 cells in 24-well plates. ZIKV titers in tissues were measured from ~40 mg of samples; thus, the detection limit was about 25 PFU/g of tissues.
Immunofluorescence staining was carried out to detect ZIKV and caspase-3 signals in ZIKV-infected mouse tissues. Briefly, tissues were fixed in 4% formaldehyde, embedded in paraffin, and sectioned. The tissue sections were deparaffinized, fixed, and permed using the FIX and PERM Cell Permeabilization Kit (Thermo Fisher Scientific, Waltham, MA, USA). After blocking with 5% BSA, the tissue slides were incubated at 37°C 2 h with ZIKV EDIII-specific human mAb (ZV-67, 1:100, Absolute Antibody, Boston, MA, USA), or rabbit anti-active caspase-3 antibody (1:100, Abcam). The slides were washed with PBS and incubated for 30 min with anti-human FITC antibody (1:100, for ZIKV), or anti-rabbit Alexa Fluor 647 antibody (1:100, for caspase-3). The slides were then counterstained for nuclei, using DAPI (300 nM, Thermo Fisher Scientific, Waltham, MA, USA) for 5 min, and mounted in VectaMount Permanent Mounting Medium (Vector Laboratories, CA, USA). The slides were analyzed using a confocal microscope (Zeiss LSM 880) and ZEN software, and fluorescent signals were quantified by ImageJ software.

[22] = test system: DENV-2 human strain V594; assay: DENV-2 challenge in Ifnar1−/− mice, flow cytometry titers; type: in vivo; conditions: C6/36 cells, flow cytometry, 3 dpi, 20 mg/kg i.p., representative image
Description: Three days after infection, sera and tissues, including the brain, kidney, and heart, were collected and assessed for DENV infection using a flow cytometry assay, as described below. Tissues were freshly homogenized with cold culture medium (EMEM + 2% FBS) and centrifuged at 4°C and 2000 g for 10 min. Serially diluted tissue supernatants and sera were added to C6/36 cells, as described below. DENV titers in tissues or sera were assessed from ~20 mg of tissue samples, or 25 μl of sera, and used for subsequent flow cytometry analysis.
Flow cytometry assay was carried out to analyze DENV-2 titers in the supernatants of homogenized tissues and sera from DENV-2-infected mice collected above. Briefly, homogenized tissue supernatants or sera were added to C6/36 cells (5×10^5 cells/well) pre-seeded in 24-well plates which the culture medium was removed, and the cells were incubated for 1 h (28°C, 5% CO2). After incubation, the cells were washed with PBS, incubated with EMEM containing 2% FBS, and then cultured for 3 days as described above. After further removal of medium, the cells were digested, washed with PBS, and resuspended in FIX/PERM solution (Tonbo Biosciences, San Diego, CA, USA), followed by incubation at 4°C for 1 h in the dark. The cells were then sequentially incubated with mouse anti-flavivirus mAb 4G2 (2 μg/ml) at 37°C for 1 h and FITC-labeled anti-mouse IgG (0.5 mg/ml, BioLegend, San Diego, CA, USA) at 37°C for 30 min, followed by analysis using a FACScan flow cytometer and Summit software. Viral titers (infectious units/ml or infectious units/g) were calculated using the formula ((% of infected cells)×(total number of cells)×(dilution factor)/(amount of inoculum added to cells)).

[23] = Zika virus, Vero C1008, in Homo sapiens, read-out: IC50 against infection of ZIKV PAN2016, plaque assay, Vero E6 cells
[24] = read-out: IC50 against infection of ZIKV PAN2016, plaque assay, Vero E6 cells
[25] = Vero C1008, plaque assay, Vero E6 cells, mosquito strain, read-out: IC50 MEX 2-81
[26] = Vero C1008, plaque assay, Vero E6 cells, rhesus strain, read-out: IC50 MR 766
[27] = Vero C1008, plaque assay, Vero E6 cells, human strain, read-out: IC50 FLR
[28] = Vero C1008, plaque assay, Vero E6 cells, human strain, read-out: IC50 R103451
[29] = Vero C1008, plaque assay, Vero E6 cells, human strain, read-out: IC50 PRVABC59
[30] = Vero C1008, plaque assay, Vero E6 cells, human strain, read-out: IC50 PLCal_ZV
[31] = Vero C1008, plaque assay, Vero E6 cells, human strain, read-out: IC50 IbH 30656

Compound	IC50 [1] [µM]	SI (CC50/IC50) [2]	IC50 [2, 23] [µM]	CC50 at 3 days ([3]; CC50 Vero E6) [µM]	IC50 [2, 24] [µM]	IC50 [4, 25] [µM]	IC50 [5, 26] [µM]	IC50 [6] [µM]	IC50 [7] [µM]	IC50 [8, 27] [µM]	IC50 [9, 28] [µM]	IC50 [10, 29] [µM]	IC50 [11, 30] [µM]	IC50 [12, 31] [µM]	IC50 [13] [µM]	CC50 [14] [µM]	other results
CC(C)OC(=O)[C@H](C)N[P@](=O)(OC[C@H]1O[C@@H](n2ccc(=O)[nH]c2=O)[C@](C)(F)[C@@H]1O)Oc1ccccc1 [Sofosbuvir]	9.6	–	–	–	–	–	–	–	–	–	–	–	–	–	–	–	–
Cc1cc2c(c(O)c1-c1c(C)cc3c(c1O)/C(=C/NCCO)C(=O)C(O)=C3C(C)C)/C(=C/NCCO)C(=O)C(O)=C2C(C)C [ST004331]	–	1.20	35.02 ± 0.35	42.3 ± 1.17	–	–	–	–	–	–	–	–	–	–	–	–	–
Cc1cc2c(C(C)C)c(O)c(O)c3c2c(c1-c1c(C)cc2c(C(C)C)c(O)c(O)c4c2c1OC4N)OC3N (centres unmarked) [ST069299]	–	–	2.3	25.9	2.34 ± 0.06	3.9	4.9	2.6	2.3	3.3	3.9	3.3	4	2.5	3	25.9 ± 2.7	–
Cc1cc2c(C(C)C)c(O)c(O)c(/C=N/NC(=O)C(C)C)c2c(O)c1-c1c(C)cc2c(C(C)C)c(O)c(O)c(/C=N/NC(=O)C(C)C)c2c1O [ST086273]	–	10.23	4.8	50.5	4.93 ± 0.7	2.8	5.5	7.9	5	4.2	7	4	5.9	5.4	5.5	50.5 ± 3.36	–
Cc1cc2c(C(C)C)c(O)c(O)c(C=O)c2c(O)c1-c1c(C)cc2c(C(C)C)c(O)c(O)c(C=O)c2c1O [Gossypol, reference compound]	–	–	3.8	14.5	3.78 ± 0.3	–	–	–	–	–	–	–	–	–	3.4	14.49 ± 0.07	IC50 ([4]; Vero C1008, read-out: IC50 MEX 2-81): 2.9 µM; IC50 ([5]; Vero C1008, read-out: IC50 MR 766): 4.1 µM; IC50 ([8]; Vero C1008, read-out: IC50 FLR): 0.7 µM; IC50 ([9]; Vero C1008, read-out: IC50 R103451): 3.1 µM; IC50 ([10]; Vero C1008, read-out: IC50 PRVABC59): 4.6 µM; IC50 ([11]; Vero C1008, read-out: IC50 PLCal_ZV): 2.9 µM; IC50 ([12]; Vero C1008, read-out: IC50 IbH 30656): 3.4 µM; CC50 at 3 days [15]: 19.1 ± 1.09 µM; IC50 [16]: 2.06 ± 0.13 µM; IC50 [17]: 1.91 ± 0.01 µM; IC50 [18]: 3.42 ± 0.11 µM; IC50 [19]: 2.83 ± 0.07 µM; Mice protected from death (survival) ([20]; 20 mg/kg i.p. 12 h before and 6, 24, 48 h post-infection, observed 21 days): no mice treated with gossypol survived at 6 dpi; Weight loss ([20]; 20 mg/kg i.p., ST087010 figure during 6–12 dpi): increased weight loss; Viral titers in the heart, kidney, and brain [21]: significantly higher; DENV-2 in brain, percentage of infected cells [22]: 3.6%; DENV-2 in heart, percentage of infected cells [22]: 3.8%; DENV-2 in kidney, percentage of infected cells [22]: 4.1%; DENV-2 in sera, percentage of infected cells [22]: 50.9%
Cc1cc2c(c(O)c1-c1c(C)cc3c(c1O)C(C=C1C(=O)NC(=O)NC1=O)C(=O)C(O)=C3C(C)C)C(C=C1C(=O)NC(=O)NC1=O)C(=O)C(O)=C2C(C)C (centres unmarked) [ST004335]	–	2.7	27.4 ± 2.5	–	–	–	–	–	–	–	–	–	–	–	–	–	CC50 at 3 days ([3]; Vero E6 cells, CCK8, 3 days, read-out: CC50 Vero E6): 73.9 ± 1.68 µM
Cc1cc2nc[nH]c2c(/N=C/c2c(O)c(O)c(C(C)C)c3cc(C)c(-c4c(C)cc5c(C(C)C)c(O)c(O)c(/C=N/c6c(C)c(C)cc7nc[nH]c67)c5c4O)c(O)c23)c1C [ST092971]	–	14.48	5	72.1	4.98 ± 0.01	13.5	5.2	8	5	6.9	6.6	9.1	6.7	5.2	6.6	72.1 ± 1.91	–
Cc1cc2c(c(O)c1-c1c(C)cc3c(c1O)/C(=C/NCc1cccnc1)C(=O)C(O)=C3C(C)C)/C(=C/NCc1cccnc1)C(=O)C(O)=C2C(C)C [ST005135]	–	2.97	35 ± 2.86	104 ± 2.2	–	–	–	–	–	–	–	–	–	–	–	–	–
CC(=O)Oc1ccccc1C(=O)Nc1ncc([N+](=O)[O-])s1 [Nitazoxanide]	15.9	–	–	–	–	–	–	–	–	–	–	–	–	–	–	–	–
Oc1cccc(-c2c3nc(c(-c4cccc(O)c4)c4ccc([nH]4)c(-c4cccc(O)c4)c4nc(c(-c5cccc(O)c5)c5ccc2[nH]5)CC4)C=C3)c1 [Temoporfin]	1.1	–	–	–	–	–	–	–	–	–	–	–	–	–	–	–	–
